Literature values as cited in patent US9255156B2, “Immunogenic synthetic glycoconjugate for the immunotherapy of melanoma” (Azienda Ospedaliero-Universitaria Careggi, priority 2009, dated 2016).

GM3 lactone [GM3 lactone 2]
stability under physiological conditions / hydrolytic stability: unstable under physiological conditions
